Results taken from patent EP0324574B1, “Immunomodulating bryostatins” (priority 1988, dated 1989).

Assays:
[1] = tested on: in vivo primed spleen cells; test: generation of cytotoxicity in in vivo primed spleen cells (3-day culture, 51Cr-release assay); assay type: cell-based, B10 mice; conditions: for development of CTL: 0.78nM present during incubation with 2 U/ml of rIL-2; for Index of Cell Recovery after incubation / Lytic Units Per 10⁷ cells: Media + rIL-2 (2U/ml) + 0.5 ng/ml PK-C activator, 3 days of incubation; for Lytic Units Per 10⁷ cells: P815 target cells
Experimental: (§1) Effector cells and ⁵¹Cr-labeled target cells were mixed and incubated in triplicate in a 96-well plate at different E/T ratios as described in Grabstein, K. 1980. Cell-mediated cytolytic responses. In Selected Methods in Cellular Immunology, B. B. Mishel and S. M. Shiigi, eds. (San Francisco, Freeman), pp. 124. The target cell number was 10⁴ cells per well when ⁵¹Cr-release assay was performed with the cytolytic T-cell clones. 5x10³ target cells per well were used when spleen cells and lymph node T-cells were studied as effectors. PMA, bryostatin 1 and bryostatin 2 were added at a final concentration ranging from 0.5 ng/ml to 100 ng/ml. Lectin- dependent cytotoxicity assay was performed by adding 10 µg/ml Con A to the mixture of CTL and ⁵¹Cr-labeled target cells. After incubation, the 96-well plate was centrifuged (1 min, 800 rpm, 4|C), all supernatants were harvested, radioactivity in the samples was counted and the mean values for each triplicate were determined. Percent of specific ⁵¹Cr release was calculated as 100X (a-b)/(t-b), where a is ⁵¹Cr release in the presence of CTL, b is spontaneous release from labeled target cells in the absence of CTL and t is the total number of cpm in the target cells.
B10 mice were immunized in vivo with 5-7.5x10⁶ irradiated P815 (H-2^d) cells. After 2-3 weeks animals were sacrificed and spleen cells were harvested. Red blood cells were lysed with hypotonic salt solution. Cells were incubated with 100 µl of 1/10 diluted M5/114.15.2 mAb containing ascites per 50x10⁶ cells. Following 30 min at room temperature, cells were washed and 100 µl of MAR 18.5 containing cell supernatant and 100 µl of rabbit complement per 50x10⁶ cells were added. Incubation at 37°C was allowed to proceed for 45 min., dead cells were removed by Hypaque-Ficoll centrifugation, washed and then incubated for three days in RPMI media/10% FCS with or without addition of IL-2, PMA or bryostatin as specified in legends of the drawing. Cytotoxicity against Ag-bearing target cells was measured in a ⁵¹Cr-release assay using P815 mastocytoma cells as targets.
In vivo primed B10 spleen cells were prepared as described above. After a 3-day culture either in the presence of either rIL-2 or rIL-2 plus protein kinase C activator, cytotoxicity was measured in a ⁵¹Cr release assay at the E/T ratios shown in FIG. 2 using 10⁴ P815 target cells/well. Results of cytotoxicity assay are shown for (A) cells cultured with rIL-2 alone (0 U/ml, 2 U/ml, 10 U/ml, 20 U/ml); (B) cells cultured with rIL-2 plus 0.5 ng/ml bryostatin 1; (C) cells cultured with rIL-2 plus 0.5 ng/ml bryostatin 2; and (D) cells cultured with rIL-2 plus 0.5 ng/ml PMA. […]

[2] = tested on: cytotoxic T-cell clone 2C; test: Ag-nonspecific cytotoxicity of CTL clone 2C against EL-4 target cells (51Cr-release); assay type: cell-based, murine; conditions: for lysis of EL-4 cells by CTL clone 2C: added to cell mixture, different E/T ratios
Experimental: as §1
No ⁵¹Cr-release was observed when ⁵¹Cr-labeled EL-4 cells ([…]) were mixed with the cytotoxic T-cell clone 2C (anti-H-2L^d) at different E/T ratios.
CTL 2C clone were incubated 4 hours with ⁵¹Cr-labeled syngeneic EL4 target cells at different E/T ratios in the presence of different concentrations of PMA or bryostatin 2.

[3] = tested on: CTL (clone BM10-37); test: BLT-Esterase secretion assay in CTL clone; assay type: cell-based, murine
Experimental: (§2) This assay was performed as described in Takayama, H., et al. 1987. Antigen receptor triggered secretion of a trypsin-type esterase from cytotoxic T-lymphocytes. J. Immunol. 138:566. Briefly, effector cells were resuspended in the incubation media and incubated in triplicate in a 96-well plate (Immulon) at a concentration of 10⁵ cells per 100 µl. Phorbol myristate acetate ("PMA"), bryostatin 1 and bryostatin 2 were added at a final concentration of 10 ng/ml, the Ca⁺⁺ ionophore A23187 (free acid, Sigma C7522) was added at a final concentration of 0.5 µ g/ml. Total volume per well was adjusted to 200 µl. After 4 hours of incubation (37°C, 5% CO₂) the plates were spun (1 min., 200 xG) and 50 µl of the supernatant was harvested. Total BLT-E content was determined by solubilizing 10⁵ effector cells with 0.1% Triton X-100 in PBS.
Using a newly developed BLT-esterase secretion assay (See: Takayama, H., et al, supra). the ability of bryostatins 1 and 2 to activate cytolytic T-cells and to trigger the exocytosis of granules from CTL was tested. […] The combination of bryostatin and Ca⁺⁺-ionophore, however, greatly enhances the activation of CTL and induces significant secretion of granule located enzyme. […] However, when equimolar concentrations of PMA and bryostatin are used, the amount of secreted BLT-Esterase was similar in both combinations.
10⁵ CTL (clone BM10-37) was incubated in a 96-well plate and stimulated by the addition of a PMA (10ng/ml) and A23187 (0.5 µg/ml). Specific BLT-E secretion was measured as described above.

[4] = tested on: CTL OE4 cells; test: Ag-specific cytotoxicity of CTL OE4 against P815 cells (51Cr-release); assay type: cell-based, murine; conditions: 10 ng/ml, P815 cells with CTL OE4 at various E/T ratios
Experimental: Effector cells and ⁵¹Cr-labeled target cells were mixed and incubated in triplicate in a 96-well plate at different E/T ratios as described in Grabstein, K. 1980. Cell-mediated cytolytic responses. In Selected Methods in Cellular Immunology, B. B. Mishel and S. M. Shiigi, eds. (San Francisco, Freeman), pp. 124. The target cell number was 10⁴ cells per well when ⁵¹Cr-release assay was performed with the cytolytic T-cell clones. 5x10³ target cells per well were used when spleen cells and lymph node T-cells were studied as effectors. PMA, bryostatin 1 and bryostatin 2 were added at a final concentration ranging from 0.5 ng/ml to 100 ng/ml. Lectin- dependent cytotoxicity assay was performed by adding 10 µg/ml Con A to the mixture of CTL and ⁵¹Cr-labeled target cells. After incubation, the 96-well plate was centrifuged (1 min, 800 rpm, 4|C), all supernatants were harvested, radioactivity in the samples was counted and the mean values for each triplicate were determined. Percent of specific ⁵¹Cr release was calculated as 100X (a-b)/(t-b), where a is ⁵¹Cr release in the presence of CTL, b is spontaneous release from labeled target cells in the absence of CTL and t is the total number of cpm in the target cells. […]
OE4 CXTL cells were incubated with 10⁴ Cr labeled P815-cells at different E/T ratios and a ⁵¹Cr-release was measured after 4 hours incubation. […]

[5] = tested on: small resting T-cells; test: BLT-E content of small resting T-cells after 3-day culture; assay type: cell-based, BALB/c mice; conditions: for expression of BLT-E activity in resting T-cells: added alone; for amount of BLT-E on a per cell basis: in combination with IL-4
Experimental: as §2
(§3) Mesenteric lymph nodes were harvested from virus-free BALB/c mice 8-12 weeks of age. After two nylon wool column passages, Ia positive cells were subsequently lysed with the anti-Ia monoclonal antibody M5/114 plus Low-Tox-M rabbit complement as described above. Small dense resting T-cells were then separated by a modified discontinuous Percoll gradient procedure (See: Defranco, et al. 1982. Frequency of B-lymphocytes responsive to antiimmunoglobulin. J. Exp. Med. 155:1523.). Purified T-cells which were harvested in the 66-70% density band were considered to be small resting T-cells.
(§4) Small resting T-cells were purified from Balb/c mesenteric lymph nodes as described above. Purified cells were cultured for 3 days at a cell concentration of 10⁶ cells/ml either in media alone or in media plus different additions (rIL-2,100 U/ml; BSF-1, 2000 U/ml; bryostatin 1 or 2, 0.5 ng/ml). Cytotoxicity was measured in a 6 hour lectin mediated (Con A, 10 µg/ml) ⁵¹Cr-release assay. Results are shown for an E/T ratio of 100/l. For the determination of BLT-E content, 10⁶ cells of each of tested culture conditions were resuspended in 100 µl of media and solubilized with 1% Triton® X-100. Fifty l of cell suspension was used for measurement of BLT-esterase content as described above. Tested reagents when added alone to the cell cultures neither increased cellular BLT-esterase content nor induced cytotoxicity as shown in FIG. 7.

[6] = tested on: small resting T-cells; test: development of cytotoxicity in small resting T-cells (lectin mediated 51Cr-release assay); assay type: cell-based, BALB/c mice
Experimental: as §1, §3, §4

[7] = tested on: tumor promoters; test: antagonism of tumor promoters
[8] = tested on: HL-60 cell line; conditions: cited from earlier work
[9] = tested on: murine P388 lymphocyte leukemia (PS) system; conditions: 10-70 µg/kg injection dose levels; cited from earlier work
[10] = tested on: P388 in vitro cell line; conditions: against the P388 in vitro cell line; cited from earlier work
[11] = tested on: M531 murine ovary sarcoma system; set-up: dose or concentration left out as unconfirmed; conditions: cited from earlier work
[12] = 10 ng/ml in combination with Ca⁺⁺ ionophore A23187 0.5 µg/ml
[13] = bryostatin and BSF-1 added together

Molecule | development of CTL [1] | Index of Cell Recovery after incubation [1] | Lytic Units Per 10⁷ cells [1] [Lytic Units Per 10⁷ cells] | degree of cytotoxicity obtained with high concentrations of rIL-2 [1] | level of ⁵¹Cr-release ([2]; 10 ng/ml, compared to same concentration of PMA or bryostatin 1, all E/T ratios (data not shown)) | lysis of EL-4 cells by CTL clone 2C [2] | concentration causing maximal activity (lysis of EL-4 cells) ([2]; plateau, 10-fold higher concentration gave no higher cytotoxicity) [ng/mL] | BLT-E secretion [3, 12] | BLT-E secretion ([3]; added alone, 10 ng/ml) | Ag-specific ⁵¹Cr-release [4] | expression of BLT-E activity in resting T-cells [5] | amount of BLT-E on a per cell basis [5] | induction of cytotoxicity in small resting T-cells compared to PMA [6] | CTL development in resting T-cells ([6]; added alone) | CTL development in resting T-cells [6, 13] | antagonism of tumor promoters [7] | induction of differentiation of the HL-60 cell line [8] | life extension [9] | ED₅₀ [10] [µg/mL] | life extension [11]
bryostatin 2 | equal in magnitude to that induced by 20 U/ml of IL-2 | 1.0 | 70 | enhanced | consistently lower | caused the lysis of EL-4 cells in a dose dependent manner | 10 | always less effective | only a slight increase | decreased | Neither growth factors (IL-2, IL-4) nor bryostatin 1 and 2 alone induced expression | dramatically increased | consistently induced similar amounts of cytotoxicity | failed to induce CTL development | synergized | antagonists of tumor promoters |  |  |  | 
CCCCCCCCCCCCCC(=O)O[C@@H]1[C@@H](C)[C@@]2(O)[C@@H](C=C(CO)C[C@]3(O)C(=O)C(C)=C[C@@H]23)[C@@H]2C(C)(C)[C@]12OC(C)=O [PMA, 4 β-phorbol-12-myristate 13-acetate, reference compound] | equal in magnitude to that induced by 20 U/ml of IL-2 | 1.3 | 71 | enhanced |  |  |  | greatly enhanced | slight BLT-Esterase secretion |  |  |  |  |  |  |  | can be induced |  |  | 
CCC/C=C/C=C/C(=O)O[C@H]1/C(=C/C(=O)OC)C[C@H]2C[C@H]([C@@H](C)O)OC(=O)C[C@H](O)C[C@@H]3C[C@H](OC(C)=O)C(C)(C)[C@](O)(C[C@@H]4C/C(=C/C(=O)OC)C[C@H](/C=C/C(C)(C)[C@]1(O)O2)O4)O3 [bryostatin 1] |  | 0.9 | 40 | enhanced |  | caused the lysis of EL-4 cells in a dose dependent manner |  | slightly lower than that of PMA/Ca²⁺-ionophore | only a slight increase | slightly but consistently higher inhibition | Neither growth factors (IL-2, IL-4) nor bryostatin 1 and 2 alone induced expression | dramatically increased | less effective than PMA | failed to induce CTL development | synergized | antagonists of tumor promoters |  | 52-96% | 0.89 | 31-68%
